As usually defined, the inhibition is the percentage by which the read-out fell short of the control. The term IC50 denotes the concentration that gives 50% inhibition.

Active and inactive are the calls of the source. No cut-off for these calls is given here.

The target in data set [1] is T1, Amine oxidase [flavin-containing] B (Homo sapiens, UniProt P27338).
T1 sequence (P27338 whole entry): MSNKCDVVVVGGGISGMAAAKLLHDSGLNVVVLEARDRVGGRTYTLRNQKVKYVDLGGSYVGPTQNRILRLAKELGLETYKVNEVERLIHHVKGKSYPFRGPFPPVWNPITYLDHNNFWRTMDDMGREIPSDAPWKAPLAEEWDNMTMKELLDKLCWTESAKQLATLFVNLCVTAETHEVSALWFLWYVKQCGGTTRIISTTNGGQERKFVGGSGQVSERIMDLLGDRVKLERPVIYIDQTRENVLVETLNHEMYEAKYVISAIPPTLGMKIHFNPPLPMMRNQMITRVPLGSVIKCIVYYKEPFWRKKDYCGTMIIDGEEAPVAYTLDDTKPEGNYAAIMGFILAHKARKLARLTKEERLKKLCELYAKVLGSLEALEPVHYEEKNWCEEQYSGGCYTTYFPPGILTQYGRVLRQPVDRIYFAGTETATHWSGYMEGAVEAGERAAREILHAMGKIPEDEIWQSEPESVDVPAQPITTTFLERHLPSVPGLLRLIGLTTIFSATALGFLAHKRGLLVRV
As to the kind of experiment: Inhibition of human recombinant MAO-B expressed in baculovirus-infected BTI cells at 10 uM using benzylamine as substrate preincubated with enzyme for 15 mins followed by substrate addition and measured after 20 mins by Amplex Red reagent based fluorescence analysis. The settings on record: time 35 min.

Data set [2] concerns BV-2. As to the kind of experiment: Anti-neuroinflammatory activity against mouse BV-2 cells assessed as suppression of LPS-induced NO production at 3 uM. It counts as functional, cell-based.
For data set [3], the system named is BV-2. As to the kind of experiment: Anti-neuroinflammatory activity against mouse BV-2 cells assessed as suppression of LPS-induced PGE2 production at 5 to 10 uM. It counts as functional, cell-based. The settings on record: dose 5-10 µM.
The species named for a further data set is Homo sapiens. As to the kind of experiment: Selectivity index, ratio of IC50 for inhibition of human recombinant MAO-A to IC50 for inhibition of human recombinant MAO-B expressed in baculovirus-infected BTI cells.
Data set [4] deals with T2, Amine oxidase [flavin-containing] A (Homo sapiens, UniProt P21397).
T2 sequence (P21397 whole entry): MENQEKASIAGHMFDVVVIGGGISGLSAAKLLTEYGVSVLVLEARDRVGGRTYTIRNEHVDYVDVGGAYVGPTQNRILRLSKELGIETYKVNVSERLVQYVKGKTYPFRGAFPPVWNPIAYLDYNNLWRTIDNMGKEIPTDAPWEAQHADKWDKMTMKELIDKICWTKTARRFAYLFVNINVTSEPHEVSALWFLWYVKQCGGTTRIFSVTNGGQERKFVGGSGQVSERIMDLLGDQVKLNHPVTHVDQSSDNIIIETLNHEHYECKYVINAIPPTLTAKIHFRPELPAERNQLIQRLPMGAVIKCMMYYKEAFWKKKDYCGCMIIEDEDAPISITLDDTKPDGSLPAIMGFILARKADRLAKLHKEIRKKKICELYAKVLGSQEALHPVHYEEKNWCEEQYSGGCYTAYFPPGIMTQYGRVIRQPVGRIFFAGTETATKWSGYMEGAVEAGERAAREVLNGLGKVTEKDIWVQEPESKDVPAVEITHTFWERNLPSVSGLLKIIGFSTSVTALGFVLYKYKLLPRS
As to the kind of experiment: Inhibition of human recombinant MAO-A using p-tyramine as substrate preincubated with enzyme for 15 mins followed by substrate addition and measured after 20 mins by Amplex Red reagent based fluorescence analysis.

The test system of data set [5] is BV-2. As to the kind of experiment: Anti-neuroinflammatory activity against mouse BV-2 cells assessed as suppression of LPS-induced NO production at 1 uM. It counts as functional, cell-based.
Data set [6] concerns BV-2. As to the kind of experiment: Cytotoxicity against mouse BV-2 cells assessed as effect on cell viability upto 10 uM. It counts as toxicity, cell-based. The settings on record: bv-2, 10 µM.
Data set [7] deals with T1, Amine oxidase [flavin-containing] B. As to the kind of experiment: Irreversible inhibition of MAO-B (unknown origin) measured after drug wash-out.
For data set [8] the target is unchanged. As to the kind of experiment: Inhibition of human recombinant MAO-B expressed in baculovirus-infected BTI cells using benzylamine as substrate preincubated with enzyme for 15 mins followed by substrate addition and measured after 20 mins by Amplex Red reagent based fluorescence analysis.
The test system of data set [9] is BV-2. As to the kind of experiment: Anti-neuroinflammatory activity against mouse BV-2 cells assessed as suppression of LPS-induced NO production. It counts as functional, cell-based.
Another data set concerns MAO-B. As to the kind of experiment: Safety ratio of cytotoxicity against mouse BV-2 cells to IC50 for inhibition of human recombinant MAO-B expressed in baculovirus-infected BTI cells. It counts as toxicity.
The test system of data set [10] is BV-2. As to the kind of experiment: Anti-neuroinflammatory activity against mouse BV-2 cells assessed as suppression of LPS-induced PGE2 production. It counts as functional, cell-based. The settings on record: dose 5-10 µM.
For data set [11], the system named is BV-2. As to the kind of experiment: Anti-neuroinflammatory activity against mouse BV-2 cells assessed as suppression of LPS-induced PGE2 production at 10 uM. It counts as functional, cell-based.
The subject of data set [12] is BV-2. As to the kind of experiment: Cytotoxicity against mouse BV-2 cells assessed as effect on cell viability at 30 uM. The settings on record: bv-2, 30 µM. It counts as toxicity, cell-based.
Data set [13] relates to BV-2. As to the kind of experiment: Anti-neuroinflammatory activity against mouse BV-2 cells assessed as suppression of LPS-induced NO production at 10 uM. It counts as functional, cell-based.

`O=C1/C(=C/c2cccc(OCc3ccccc3Br)c2)Oc2cc(O)ccc21`: the inhibition at 10 µM in [1] worked out at 36%.
The same measure, in the same setting: with `O=C1/C(=C/c2ccc(OCc3cccc([N+](=O)[O-])c3)cc2)Oc2cc(O)ccc21` the figure was 48.5%; with `O=C1/C(=C/c2ccc(OCc3ccc(Cl)cc3)cc2)Oc2cc(O)ccc21`, 35.6%.
Take `O=C1/C(=C/c2ccc(OCc3ccccc3Cl)cc2)Oc2cc(O)ccc21`: the result in the data set with BV-2 [2] and with BV-2 [3] was Active. Besides, the Ratio IC50 in the data set listed under Homo sapiens was above 264. Also, the results for the IC50 in data set [4] and in data set [8] were above 100 µM and 0.38 µM, respectively. Moreover, the outcome with BV-2 [5] was inactive. In addition, the values for the Activity entry in the data set on BV-2 [6] and in the data set on BV-2 [9] were “Non-Toxic” and “Dose-Dependent Effect”, respectively. Also, the inhibition at 10 µM in data set [1] was found to be 81.3%. Besides, in data set [7], the “inhibition (INH)” value is “Active”. Further, in the data set with MAO-B, the selectivity ratio is above 27.
Turning to `O=C1/C(=C/c2ccc(OCc3ccc(Br)cc3)cc2)Oc2cc(O)ccc21`, in [1], the inhibition at 10 µM turned out to be 41.1%.
In the case of `O=C1/C(=C/c2ccc(OCc3ccc(F)cc3)cc2)Oc2cc(O)ccc21`, the outcome in the data set with BV-2 [2] and with BV-2 [11] was Active. Moreover, the Activity entry was “Dose-Dependent Effect” with BV-2 [10], “Non-Toxic” in the data set on BV-2 [6], “Dose-Dependent Effect” with BV-2 [9] and “Non-Toxic” in the data set on BV-2 [12]. Also, the Ratio IC50 in the data set listed under Homo sapiens was above 100. The concentration for half-maximal inhibition (IC50) in data set [4] was above 100 µM; in data set [8], 1 µM. In the data set on BV-2 [5], the outcome was inactive. Also, the inhibition at 10 µM in data set [1] was 68.2%. Moreover, the selectivity ratio in the data set on MAO-B was above 30.
Take `COc1ccc(/C=C2\Oc3cc(O)ccc3C2=O)c(OC)c1OC`: the Ratio IC50 in the data set listed under Homo sapiens is above 583. For the same compound, the IC50 in [4] was above 100 µM.
Consider `O=C1/C(=C/c2cccc(OCc3ccc(Cl)cc3)c2)Oc2cc(O)ccc21`, for which the Ratio IC50 in the data set listed under Homo sapiens is above 55.2. Moreover, the half-inhibitory concentration (IC50) in data set [4] was above 100 µM; in data set [8] it was 1.81 µM. In data set [1], the inhibition at 10 µM stood at 70.7%.
Taken in the same sequence, the figures for `O=C1/C(=C/c2cccc(OCc3ccc(F)cc3)c2)Oc2cc(O)ccc21` were above 42.2, above 100 µM, 2.37 µM and 60.7%.
Taken in the same sequence, the figures for `O=C1/C(=C/c2cccc(OCc3ccccc3)c2)Oc2cc(O)ccc21` were above 89.8, above 100 µM, 1.11 µM and 77.8%.
For `O=C1/C(=C/c2ccc(OCc3ccccc3)cc2)Oc2cc(O)ccc21`, the Activity result in the data set with BV-2 [10] is “Dose-Dependent Effect”; in the data set with BV-2 [6], “Non-Toxic”; in the data set with BV-2 [9], “Dose-Dependent Effect”; in the data set with BV-2 [12] it was “Non-Toxic”. Moreover, the outcome in the data set with BV-2 [3] and in the data set on BV-2 [13] was Active. The Ratio IC50 in the data set listed under Homo sapiens is above 138. Also, the IC50 is above 100 µM in data set [4] and 0.72 µM in data set [8]. Moreover, in data set [1], the inhibition at 10 µM stood at 86.7%. The selectivity ratio in the data set on MAO-B was above 41.6.
Consider `O=C1/C(=C/c2ccc(OCc3cccc(Br)c3)cc2)Oc2cc(O)ccc21`, for which the Ratio IC50 in the data set listed under Homo sapiens is above 106. Besides, the IC50 in data set [4] is above 100 µM; in [8], 0.95 µM. Also, the Activity entry with BV-2 [6] is on record as “Non-Toxic”. In addition, the inhibition at 10 µM in data set [1] was 67.9%. Also, the selectivity ratio with MAO-B came to 10.6.
Consider `O=C1/C(=C/c2ccc(OCc3ccccc3Br)cc2)Oc2cc(O)ccc21`, for which, in the data set filed under Homo sapiens, the Ratio IC50 was above 227. Further, the IC50 is above 100 µM in [4] and 0.44 µM in [8]. For the same compound, the inhibition at 10 µM in [1] turned out to be 81.7%. Besides, the selectivity ratio in the data set on MAO-B is above 6.
Consider `O=C1/C(=C/c2ccc(OCc3cccc(F)c3)cc2)Oc2cc(O)ccc21`, for which the inhibition at 10 µM in [1] came out at 55.3%.
As to `O=C1/C(=C/c2cccc(OCc3cccc(Cl)c3)c2)Oc2cc(O)ccc21`, in the data set listed under Homo sapiens, the Ratio IC50 was above 52.3. Moreover, the figures for the IC50 in data set [4] and in data set [8] were above 100 µM and 1.91 µM, respectively. The inhibition at 10 µM in data set [1] came out at 61.7%.
For `O=C1/C(=C/c2cccc(OCc3ccccc3Cl)c2)Oc2cc(O)ccc21`, the inhibition at 10 µM in [1] worked out at 41.7%.
Regarding `O=C1/C(=C/c2cccc(OCc3cccc([N+](=O)[O-])c3)c2)Oc2cc(O)ccc21`, the inhibition at 10 µM in data set [1] stood at 33.9%.
On to `O=C1/C(=C/c2cccc(OCc3ccccc3F)c2)Oc2cc(O)ccc21`, for which the Ratio IC50 in the data set listed under Homo sapiens is above 106. The IC50 in [4] is above 100 µM; in data set [8], 0.95 µM. Further, the inhibition at 10 µM in data set [1] was 73.9%.
As to `COc1cccc(COc2ccc(/C=C3\Oc4cc(O)ccc4C3=O)cc2)c1`, the inhibition at 10 µM in data set [1] was 59.7%.
For `O=C1/C(=C/c2cccc(OCc3cccc(Br)c3)c2)Oc2cc(O)ccc21`, the Ratio IC50 in the data set listed under Homo sapiens was above 49.6. For the same compound, the values for the concentration for half-maximal inhibition (IC50) in [4] and in data set [8] were above 100 µM and 2.02 µM, respectively. Moreover, the inhibition at 10 µM in data set [1] was 62.7%.
On the same counts, the results for `O=C1/C(=C/c2cccc(OCc3ccc(Br)cc3)c2)Oc2cc(O)ccc21` are above 59.9, above 100 µM, 1.67 µM and 69.6%.
On the same counts, the results for `COc1cccc(COc2cccc(/C=C3\Oc4cc(O)ccc4C3=O)c2)c1` are above 28.4, above 30 µM, 1.06 µM and 70.1%.
Take `O=C1/C(=C/c2ccc(OCc3cccc(Cl)c3)cc2)Oc2cc(O)ccc21`: the inhibition at 10 µM in data set [1] worked out at 59%.
Still for that read-out and setting: with `O=C1/C(=C/c2cccc(OCc3cccc(F)c3)c2)Oc2cc(O)ccc21` the figure was 55.1%.
With `O=C1/C(=C/c2ccc(OCc3ccccc3F)cc2)Oc2cc(O)ccc21`, the Ratio IC50 in the data set listed under Homo sapiens was above 131. Further, the IC50 was above 100 µM in [4] and 0.76 µM in [8]. The Activity entry in the data set with BV-2 [6] was “Non-Toxic”. The inhibition at 10 µM in data set [1] was 74.2%. Besides, the selectivity ratio in the data set with MAO-B was above 13.1.

The record behind these values is ChEMBL document CHEMBL5576105, “Synthesis and biological evaluation of O4'-benzyl-hispidol derivatives and analogs as dual monoamine oxidase-B inhibitors and anti-neuroinflammatory agents” (Bioorg Med Chem, 2024).
